Results taken from the CheMixHub ionic liquid set.

Test: xn = mol fraction of the nth substance listed

CC(O)C(=O)[O-].C[N+](C)(C)CCO + O
101 kPa
Conditions | viscosity [mPa·s]
293.15 K, x2 = 0.0272 | 5800
293.15 K, x2 = 0.5026 | 174.9
293.15 K, x2 = 0.7993 | 26.26
293.15 K, x2 = 0.8998 | 7.312
298.15 K, x2 = 0 | 559
298.15 K, x2 = 0.4038 | 187.4
298.15 K, x2 = 0.5858 | 87.96
298.15 K, x2 = 0.7993 | 20.92
303.15 K, x2 = 0.0992 | 308.5
308.15 K, x2 = 0.3008 | 144.2
308.15 K, x2 = 0.8998 | 4.497
313.15 K, x2 = 0.8998 | 3.897
318.15 K, x2 = 0.7993 | 9.616
323.15 K, x2 = 0.701 | 15.61
323.15 K, x2 = 0.7993 | 8.175
328.15 K, x2 = 0.7993 | 7.029
333.15 K, x2 = 0.2048 | 52.54
333.15 K, x2 = 0.3008 | 43.97
333.15 K, x2 = 0.701 | 11.18
348.15 K, x2 = 0.8998 | 1.767
353.15 K, x2 = 0.0992 | 30
353.15 K, x2 = 0.7993 | 3.729
353.15 K, x2 = 0.8998 | 1.614

C[N+](C)(C)Cc1ccccc1.[Cl-] + O=C([O-])c1ccccc1.[Na+] + O
viscosity [mPa·s], 100 kPa
Conditions | 298.15 K | 303.15 K | 308.15 K | 313.15 K | 318.15 K
x1 = 9.698e-05, x2 = 0.001545 | 0.924 | 0.835 | 0.753 | 0.654 | 0.566
x1 = 9.701e-05, x2 = 0.00127 | 0.919 | 0.829 | 0.748 | 0.65 | 0.562
x1 = 9.703e-05, x2 = 0.0009982 | 0.913 | 0.823 | 0.742 | 0.645 | 0.558
x1 = 9.706e-05, x2 = 0.0007245 | 0.906 | 0.817 | 0.737 | 0.64 | 0.552
x1 = 9.709e-05, x2 = 0.0004525 | 0.901 | 0.812 | 0.731 | 0.635 | 0.548
x1 = 9.711e-05, x2 = 0.0001803 | 0.896 | 0.807 | 0.726 | 0.629 | 0.544
x1 = 0.0002915, x2 = 0.001548 | 0.927 | 0.84 | 0.758 | 0.652 | 0.562
x1 = 0.0002916, x2 = 0.001 | 0.915 | 0.827 | 0.747 | 0.64 | 0.554
x1 = 0.0002916, x2 = 0.001272 | 0.92 | 0.833 | 0.752 | 0.647 | 0.559
x1 = 0.0002917, x2 = 0.0007258 | 0.909 | 0.821 | 0.74 | 0.637 | 0.55
x1 = 0.0002918, x2 = 0.0004533 | 0.902 | 0.816 | 0.735 | 0.631 | 0.544
x1 = 0.0002919, x2 = 0.0001807 | 0.898 | 0.812 | 0.731 | 0.626 | 0.54
x1 = 0.0004867, x2 = 0.001551 | 0.932 | 0.843 | 0.76 | 0.665 | 0.577
x1 = 0.0004868, x2 = 0.001275 | 0.926 | 0.837 | 0.754 | 0.66 | 0.573
x1 = 0.0004869, x2 = 0.001002 | 0.919 | 0.831 | 0.748 | 0.655 | 0.569
x1 = 0.0004871, x2 = 0.0007272 | 0.913 | 0.826 | 0.743 | 0.649 | 0.563
x1 = 0.0004872, x2 = 0.0004542 | 0.908 | 0.82 | 0.737 | 0.645 | 0.559
x1 = 0.0004873, x2 = 0.000181 | 0.903 | 0.815 | 0.733 | 0.64 | 0.555

CC(=O)Nc1ccc(O)cc1 + O + CCCC[n+]1ccn(C)c1.[Br-]
101 kPa, frequency 0.0003 MHz
Conditions | electrical conductivity [S/m]
293.15 K, x1 = 0.0005475, x3 = 1.14e-05 | 0.0067
293.15 K, x1 = 0.0005475, x3 = 1.628e-05 | 0.0094
293.15 K, x1 = 0.001082, x3 = 4.9e-06 | 0.003
298.15 K, x1 = 0.0005475, x3 = 9.05e-06 | 0.0056
298.15 K, x1 = 0.0005475, x3 = 1.447e-05 | 0.0085
298.15 K, x1 = 0.001082, x3 = 5.63e-06 | 0.0034
298.15 K, x1 = 0.001082, x3 = 1.162e-05 | 0.0067
298.15 K, x1 = 0.001082, x3 = 1.635e-05 | 0.0092
303.15 K, x1 = 0.0005475, x3 = 5.43e-06 | 0.0036
303.15 K, x1 = 0.0005475, x3 = 1.158e-05 | 0.0071
303.15 K, x1 = 0.001082, x3 = 5.09e-06 | 0.0032
303.15 K, x1 = 0.001082, x3 = 1.162e-05 | 0.0067
303.15 K, x1 = 0.001082, x3 = 1.617e-05 | 0.0091
308.15 K, x1 = 0.0005475, x3 = 2.71e-06 | 0.0025
308.15 K, x1 = 0.0005475, x3 = 9.41e-06 | 0.0073
308.15 K, x1 = 0.001082, x3 = 5.63e-06 | 0.0038
308.15 K, x1 = 0.001082, x3 = 1.199e-05 | 0.0075

CCCCCCCC[N+](CCCCCCCC)(CCCCCCCC)CCCCCCCC.[Br-] + CCCCCCC(=O)O
Conditions | electrical conductivity [S/m]
298.1 K, 100 kPa, x1 = 0.333 | 4.5e-06

C[N+](CCO)(CCO)CCOCCO.[Cl-] + OCCO
101 kPa, x1 = 0.3322
Conditions | viscosity [mPa·s]
283.15 K | 474
288.15 K | 335
293.15 K | 243.1
298.15 K | 179.2
303.15 K | 136.1
308.15 K | 104.7
313.15 K | 81.8
318.15 K | 65.1
323.15 K | 52.4
328.15 K | 42.78
333.15 K | 35.43
338.15 K | 29.52
343.15 K | 24.91
348.15 K | 21.24
353.15 K | 18.37

C[N+](C)(C)Cc1ccccc1.[Cl-] + O
electrical conductivity [S/m], 101.3 kPa, frequency 0.001 MHz
Conditions | 298.15 K | 308.15 K | 318.15 K
x1 = 1.802e-05 | 0.0137 | 0.0183 | 0.0233
x1 = 5.406e-05 | 0.0295 | 0.0398 | 0.0456
x1 = 9.009e-05 | 0.0457 | 0.0565 | 0.0643

viscosity [mPa·s]
Conditions | 298.15 K | 303.15 K | 308.15 K | 318.15 K
100 kPa, x1 = 0.0004874 | – | 0.813 | – | –
101.3 kPa, x1 = 1.802e-05 | 0.88 | – | – | 0.611
101.3 kPa, x1 = 5.406e-05 | – | – | 0.747 | 0.627
101.3 kPa, x1 = 9.009e-05 | 0.914 | – | 0.766 | 0.646

ClCCl + CCCC[n+]1ccn(C)c1.F[B-](F)(F)F
298.15 K
Conditions | electrical conductivity, 101 kPa [S/m] | viscosity, 101 kPa [mPa·s] | viscosity, 101.33 kPa [mPa·s]
x1 = 0.1 | 0.265 | 85 | –
x1 = 0.1923 | 0.348 | 63.1 | –
x1 = 0.2841 | 0.45 | 46.1 | –
x1 = 0.3884 | 0.592 | 31.2 | –
x1 = 0.4507 | – | – | 14.3
x1 = 0.4878 | 0.772 | 20 | –
x1 = 0.5882 | 0.99 | 12.3 | –
x1 = 0.6897 | 1.18 | 6.73 | –
x1 = 0.756 | 1.26 | 4 | –
x1 = 0.8395 | 1.18 | 1.96 | –

CC[n+]1ccn(C)c1.O=S(=O)([N-]S(=O)(=O)C(F)(F)F)C(F)(F)F + CC1COC(=O)O1
101.3 kPa
Conditions | viscosity [mPa·s]
288.15 K, x1 = 0.7977 | 34.2
293.15 K, x1 = 0.3007 | 8.42
293.15 K, x1 = 1 | 39.06
298.15 K, x1 = 0.2127 | 5.58
298.15 K, x1 = 0.7004 | 20.1
303.15 K, x1 = 0.1 | 3.358
303.15 K, x1 = 0.4227 | 8.98
303.15 K, x1 = 0.7601 | 18.97
308.15 K, x1 = 0.4227 | 7.89
308.15 K, x1 = 0.6015 | 12.59
308.15 K, x1 = 0.7601 | 16.83
308.15 K, x1 = 1 | 23.19
313.15 K, x1 = 0.7601 | 14.7
313.15 K, x1 = 0.8098 | 16.11
313.15 K, x1 = 1 | 19.94
318.15 K, x1 = 0.3007 | 4.614
318.15 K, x1 = 0.6015 | 9.46
318.15 K, x1 = 0.7004 | 11.6
318.15 K, x1 = 0.9533 | 16.99
323.15 K, x1 = 0.6015 | 8.33
328.15 K, x1 = 0.2127 | 3.014
328.15 K, x1 = 0.4227 | 5.07
328.15 K, x1 = 0.5146 | 6.11
328.15 K, x1 = 0.7601 | 9.85
328.15 K, x1 = 0.7977 | 10.52
333.15 K, x1 = 0.1 | 1.979
333.15 K, x1 = 0.3007 | 3.477
333.15 K, x1 = 0.658 | 7.31
333.15 K, x1 = 0.7004 | 7.92
338.15 K, x1 = 0.1 | 1.838
343.15 K, x1 = 0.5146 | 4.595
343.15 K, x1 = 0.7601 | 6.96
343.15 K, x1 = 0.7977 | 7.41
343.15 K, x1 = 0.8098 | 7.59
348.15 K, x1 = 0.1 | 1.599
348.15 K, x1 = 0.2127 | 2.203
348.15 K, x1 = 0.658 | 5.39
